According to patent publication US9822115B2, “Nitrogen containing compounds and their use as antibacterial agents” (WOCKHARDT LIMITED, priority 2014, dated 2017):
Converted amounts (≈) assume the structure as drawn. Where two headings read alike, the source gives them in different places.

Assays:
E. coli M 50 = assay: Antibacterial activity, MIC by agar dilution (CLSI); format: cell-based; details: Escherichia coli, M50, Table 3
Experimental: (§1) The biological activity of representative compounds according to the invention against various bacterial strains was investigated. In a typical study, overnight grown bacterial cultures were diluted appropriately and inoculated on the agar media containing doubling dilutions of the test compounds. Observations for growth or no growth was performed after 16-20 hours of incubation at 35±2° C. in the ambient air. The overall procedure was performed as per Clinical and Laboratory Standards Institute (CLSI) recommendations, (Clinical and Laboratory Standards Institute (CLSI), Performance Standards for Antimicrobial Susceptibility Testing, 20th Informational Supplement, M07-A9, Volume 32, No. 2, 2012). Molten Mueller Hinton Agar (BD, USA) containing serial dilutions of each antibacterial agent were poured on to the plates and allowed to solidify. Appropriate suspensions from the freshly grown cultures were prepared in normal saline so that about 10^4 CFU/spot of the organism was delivered on to the drug containing agar plates using automated multipoint inoculator (Mast, UK). The plates were incubated in Biochemical oxygen demand (BOD) incubator at 37° C. for 18 hours and then examined for growth.
(§2) Table 3 details the antibacterial activity of representative compound of Formula (I), Sodium salt of (2S,5R)-Sulfuric acid mono-[2-(N′-(4-hydroxyphenyl-acetyl)-hydrazinocarbonyl)-7-oxo-1,6-diaza-bicyclo[3.2.1]oct-6-yl]ester (Compound of Example 1) and Sodium salt of (2S,5R)-Sulfuric acid mono-[2-(N′-(pyridine-2-yl-acetyl)-hydrazinocarbonyl)-7-oxo-1,6-diaza-bicyclo[3.2.1]oct-6-yl] ester (Compound of Example 8), against various Multi Drug Resistant (MDR) Gram-negative bacterial strains.

K. pneumoniae H 525 = assay: as above; format: cell-based; details: Klebsiella pneumoniae, H525, Table 3
Experimental: as §1, §2

K. pneumoniae S 21 = assay: as above; format: cell-based; details: Klebsiella pneumoniae, S21, Table 3
Experimental: as §1, §2

E. coli NCTC 13352 = assay: as above; format: cell-based; details: Escherichia coli, NCTC13352, Table 3
Experimental: as §1, §2

C. frundaii 58 MP = assay: as above; format: cell-based; details: Table 3
Experimental: as §1, §2

E. coli 7 MP = assay: as above; format: cell-based; details: Escherichia coli, Table 3
Experimental: as §1, §2

E. coli NCTC 13351 = assay: as above; format: cell-based; details: Escherichia coli, NCTC13351, Table 3
Experimental: as §1, §2

E. cloacae M 20 = assay: as above; format: cell-based; details: Enterobacter cloacae, M20, Table 3
Experimental: as §1, §2

P. aeruginosa 2779 = assay: as above; format: cell-based; details: Pseudomonas aeruginosa, Table 3
Experimental: as §1, §2

E. coli M 49 = assay: as above; format: cell-based; details: Escherichia coli, M49, Table 3
Experimental: as §1, §2

P. aeruginosa ATCC 27853 = assay: as above; format: cell-based; details: Pseudomonas aeruginosa, ATCC27853, Table 3
Experimental: as §1, §2

P. aeruginosa R 20 = assay: as above; format: cell-based; details: Pseudomonas aeruginosa, R20, Table 3
Experimental: as §1, §2

E. coli M50 = assay: Zone of inhibition, compound alone and in combination with ceftazidime (agar well); format: cell-based; details: Escherichia coli, M50, E. coli M50, read-out: Diameter of Zone of Inhibition; for zone of inhibition at 0.25 µg/disc: 0.25 μg/well; for zone of inhibition at 0.5 µg/disc: 0.5 μg/well; for zone of inhibition at 1 µg/disc: 1 μg/well
Experimental: (§3) Determination of antibacterial activity of combinations according to invention: In a typical experiment, two sets of plates containing growth media (Molten Mueller Hilton Agar) and bacterial strains were prepared. One set of plates was taken as control (without ceftazidime) and other set contained ceftazidime. The media was allowed to solidify and wells were punched later. A two-fold serial dilution range of each of the compounds according to invention was prepared and 50 μl of each of the dilution was added into the punched well. […] The Table 5 provides the antibacterial activity of the combination comprising compounds according to invention and ceftazidime.

E. coli NCTC 13353 = assay: as above; format: cell-based; details: Escherichia coli, NCTC13353, E. coli NCTC 13353, read-out: Diameter of Zone of Inhibition; for zone of inhibition at 0.25 µg/disc: 0.25 μg/well; for zone of inhibition at 0.5 µg/disc: 0.5 μg/well; for zone of inhibition at 1 µg/disc: 1 μg/well
Experimental: as §3

[1] = test system: K. pneumoniae H521 (KPC, SHV, TEM); assay: Antibacterial activity, MIC by agar dilution (CLSI); format: cell-based; details: Klebsiella pneumoniae, read-out: MIC
How it was run: (§4)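 Agar dilution per CLSI on Mueller Hinton agar with doubling compound dilutions, about 10^4 CFU/spot by multipoint inoculator. Plates incubated 16-20 h at 35±2° C in ambient air; procedure also gives 37° C for 18 h. MIC (mcg/ml) scored as growth or no growth.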

[2] = test system: K. pneomoniae S48 (NDM, SHV, TEM); assay: as above; format: cell-based, K. pneumoniae; details: Klebsiella pneumoniae; Table 2; K. pneomoniae S48 (NDM, SHV, TEM); read-out: MIC
How it was run: as §4

[3] = target: T1, Class D beta-lactamase, A. baumannii NCTC 13301 (OXA 23) (Acinetobacter baumannii, UniProt Q9L4P2); assay: Beta-lactamase enzyme inhibition (nitrocefin, crude enzyme); format: biochemical; details: Class D A. baumannii NCTC 13301 (OXA 23); read-out: Beta-lactamase enzyme inhibition IC50
T1 construct: preincubated mixture of crude enzyme and the agents; endogenous in cells; host or cells: A. baumannii NCTC 13301
How it was run: (§5)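 Crude enzyme preincubated with inhibitor 10 min at 37 °C, then nitrocefin (100 uM) added for 5 min. Absorbance read at 485 nm; IC50 obtained from sigmoidal dose-response fit of absorbance versus concentration.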

[4] = target: T2, Class A beta-lactamase, K. pneumoniae ATCC 700603 (SHV 18) (Klebsiella pneumoniae, UniProt P0AD64, E235K/G234A/R39S); assay: biochemical
T2 construct: preincubated mixture of crude enzyme and the agents; endogenous in cells; host or cells: K. pneumoniae ATCC 700603
How it was run: as §5

[5] = Compound + Ceftazidime (10 μg/ml)
[6] = Table 2, K. pneumoniae H521 (KPC, SHV, TEM)

T2 sequence (P0AD64 22-286 R39S/G234A/E235K): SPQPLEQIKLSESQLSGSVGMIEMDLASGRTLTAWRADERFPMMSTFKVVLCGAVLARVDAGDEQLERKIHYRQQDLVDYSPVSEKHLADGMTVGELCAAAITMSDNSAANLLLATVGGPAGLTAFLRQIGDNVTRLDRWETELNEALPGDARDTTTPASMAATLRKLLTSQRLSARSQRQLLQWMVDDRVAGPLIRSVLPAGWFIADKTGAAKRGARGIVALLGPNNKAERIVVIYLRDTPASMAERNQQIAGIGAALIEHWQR
T1 sequence (Q9L4P2 18-273): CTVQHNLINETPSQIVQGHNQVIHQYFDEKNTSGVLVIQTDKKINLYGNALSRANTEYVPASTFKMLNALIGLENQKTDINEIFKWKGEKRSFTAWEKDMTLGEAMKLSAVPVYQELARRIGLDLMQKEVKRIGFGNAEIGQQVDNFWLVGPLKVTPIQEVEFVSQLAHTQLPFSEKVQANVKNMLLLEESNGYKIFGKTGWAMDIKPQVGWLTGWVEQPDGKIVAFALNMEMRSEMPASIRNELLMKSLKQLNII

`O=C(Cc1ccc(O)cc1)NNC(=O)[C@@H]1CC[C@@H]2CN1C(=O)N2OS(=O)(=O)[O-].[Na+]` [Example 1, Sodium Salt of (2S,5R)-Sulfuric Acid mono-[2-(N′-(4-hydroxyphenyl-acetyl)-hydrazinocarbonyl)-7-oxo-1,6-diaza-bicyclo[3.2.1]oct-6-yl]ester] showed an MIC (E. coli M 50) of 0.5 µg/mL, an MIC (K. pneumoniae H 525) of 0.5 µg/mL and an MIC (K. pneumoniae S 21) of 2 µg/mL. It also gave an MIC (E. coli NCTC 13352) of 0.25 µg/mL, an MIC (C. frundaii 58 MP) of 32 µg/mL and an MIC (E. coli 7 MP) of 1 µg/mL. For the same compound, the MIC (E. coli NCTC 13351) was 0.25 µg/mL, the MIC (E. cloacae M 20) was 1 µg/mL and the MIC (P. aeruginosa 2779) was over 32 µg/mL. The MIC (E. coli M 49) was 2 µg/mL, the MIC (P. aeruginosa ATCC 27853) was over 32 µg/mL and the MIC (P. aeruginosa R 20) was over 32 µg/mL. For the same compound, the zone of inhibition at 0.25 µg/disc (E. coli M50; [5]) was 16 mm, the zone of inhibition at 0.5 µg/disc (E. coli M50; [5]) was 19 mm and the zone of inhibition at 1 µg/disc (E. coli M50; [5]) was 22 mm. The zone of inhibition at […] (E. coli M50; [5]) was 13 mm, the zone of inhibition at 0.25 µg/disc (E. coli M50; Compound alone) was 12 mm and the zone of inhibition at 0.5 µg/disc (E. coli M50; Compound alone) was 13.5 mm. For the same compound, the zone of inhibition at 1 µg/disc (E. coli M50; Compound alone) was 16 mm, the zone of inhibition at 0.25 µg/disc (E. coli NCTC 13353; [5]) was 18 mm and the zone of inhibition at 0.5 µg/disc (E. coli NCTC 13353; [5]) was 21 mm. It also gave a zone of inhibition at 1 µg/disc (E. coli NCTC 13353; [5]) of 25 mm, a zone of inhibition at […] (E. coli NCTC 13353; [5]) of 16 mm and a zone of inhibition at 0.25 µg/disc (E. coli NCTC 13353; Compound alone) of 14.5 mm. The zone of inhibition at 0.5 µg/disc (E. coli NCTC 13353; Compound alone) was 15.5 mm, the zone of inhibition at 1 µg/disc (E. coli NCTC 13353; Compound alone) was 17 mm and the MIC [1, 6] was 1 µg/mL. It also gave an MIC ([1]; Table 3, K. pneumoniae H 521) of 1 µg/mL, an MIC [2] of 0.5 µg/mL and an IC50 [3] of 315 nM. For the same compound, the IC50 [4] was 103 nM.
With `NCCOc1ccccc1CC(=O)NNC(=O)[C@@H]1CC[C@@H]2CN1C(=O)N2OS(=O)(=O)O` [Example 2, (2S,5R)-Sulfuric Acid mono-[2-(N′-{2-[2-(2-amino-ethoxy)-phenyl]-acetyl}-hydrazinocarbonyl)-7-oxo-1,6-diaza-bicyclo[3.2.1]oct-6-yl]ester] the MIC (E. coli M 50) was 1 µg/mL (≈ 2.19 µM), the MIC (K. pneumoniae H 525) was 1 µg/mL (≈ 2.19 µM) and the MIC (K. pneumoniae S 21) was 2 µg/mL (≈ 4.37 µM). It also gave an MIC (E. coli NCTC 13352) of 1 µg/mL (≈ 2.19 µM), an MIC (C. frundaii 58 MP) of 16 µg/mL (≈ 35 µM) and an MIC (E. coli 7 MP) of 2 µg/mL (≈ 4.37 µM). The MIC (E. coli NCTC 13351) was 1 µg/mL (≈ 2.19 µM), the MIC (E. cloacae M 20) was 2 µg/mL (≈ 4.37 µM) and the MIC (P. aeruginosa 2779) was over 32 µg/mL. The MIC (E. coli M 49) was 2 µg/mL (≈ 4.37 µM), the MIC (P. aeruginosa ATCC 27853) was over 32 µg/mL and the MIC (P. aeruginosa R 20) was over 32 µg/mL. For the same compound, the zone of inhibition at 0.25 µg/disc (E. coli M50; [5]) was 13 mm, the zone of inhibition at 0.5 µg/disc (E. coli M50; [5]) was 16.5 mm and the zone of inhibition at 1 µg/disc (E. coli M50; [5]) was 18.5 mm. For the same compound, the zone of inhibition at […] (E. coli M50; [5]) was 10 mm, the zone of inhibition at 0.25 µg/disc (E. coli M50; Compound alone) was 10 mm and the zone of inhibition at 0.5 µg/disc (E. coli M50; Compound alone) was 14 mm. The zone of inhibition at 1 µg/disc (E. coli M50; Compound alone) was 16 mm, the zone of inhibition at 0.25 µg/disc (E. coli NCTC 13353; [5]) was 21 mm and the zone of inhibition at 0.5 µg/disc (E. coli NCTC 13353; [5]) was 24 mm. The zone of inhibition at 1 µg/disc (E. coli NCTC 13353; [5]) was 28 mm, the zone of inhibition at […] (E. coli NCTC 13353; [5]) was 17 mm and the zone of inhibition at 0.25 µg/disc (E. coli NCTC 13353; Compound alone) was 11 mm. For the same compound, the zone of inhibition at 0.5 µg/disc (E. coli NCTC 13353; Compound alone) was 14 mm, the zone of inhibition at 1 µg/disc (E. coli NCTC 13353; Compound alone) was 16 mm and the MIC [1, 6] was 1 µg/mL (≈ 2.19 µM). The MIC ([1]; Table 3, K. pneumoniae H 521) was 2 µg/mL (≈ 4.37 µM), the MIC [2] was 1 µg/mL (≈ 2.19 µM) and the IC50 [3] was 3770 nM. It also gave an IC50 [4] of 119 nM.
